Source: US5567624A, “Carbazine dyes and derivatives for pH measurement” (Utah Medical Products, Inc., priority 1995, dated 1996)

Columns and labels:
Format in all cases: physicochemical
[1] = Absorbance and fluorescence emission spectra of acid and base forms of the dyes; conditions: Table, footnote c
Experimental: Certain properties of the carbazine dyes of Examples 1-7 were determined. Spectral data were obtained either with a Hewlett Packard Model 8452A Diode Array Spectrophotometer or a Perkin Elmer Model LS 50B Luminescence Spectrometer. All of the dyes are similar in their absorbance and emission spectra, with only slight differences in peak locations, ratios of absorbance of acid to absorbance of base, and pKa s. The unmodified dyes show large separation between absorbance peaks for acid and base forms. Typically, the acid form has a peak absorbance at about 480 nm, and the base form has a peak absorbance at about 660 nm. Fluorescence emission of the base form has a well-defined single peak at approximately 690 nm.

[2] = pKa of the dyes in aqueous solution, derived from the absorbance spectra
Description: The pKa values, i.e. the approximate pH values of an aqueous solution of the dye where the acid and base forms of the dye are present in equal concentrations, were derived from the absorbance spectra and are listed in the Table below. As mentioned above, indicator dyes are generally most sensitive to pH changes near their pKa s.

[3] = Fluorescence rating / quantum yield in aqueous solution; conditions: for Fluorescence: relative scale of 1 to 10 where 10 is best, excitation at maximum absorbance wavelength, constant concentration and pH
Description: The fluorescence ratings shown in the Table are based on the maximum fluorescence obtainable from an aqueous carbazine dye solution with excitation at the maximum absorbance wavelength for the particular dye, but with concentrations and pH constant between all dyes. […] Quantum yields of the acid forms of the dyes appears as high as the base forms. The carbazine dye of Example 4, sold commercially as "CARBAZINE 720" (Exciton, Inc., Dayton, Ohio), has a quantum yield of approximately 50% in aqueous solution containing base.

SMILES	Absorbance ratio of acid/base [1]	pKa [2]	Fluorescence [3]	quantum yield ([3]; aqueous solution containing base)
O=C1C=CC2(C=C1)C1=CC(=O)C=CC1=Nc1ccc(O)cc12 [Example 1, 7-hydroxyspiro[acridine-9,1'-cyclohexa-2',5'-diene]-2(9H),4'-dione]	0.426	6.5	2	–
CC1=C(C)C2(C3=CC(=O)C=CC3=Nc3ccc(O)cc32)C(C)=C(C)C1=O [Example 4, 7-hydroxy-2',3',5',6'-tetramethylspiro[acridine-9,1'-cyclohexa-2', 5'-diene]-2(9H), 4'-dione]	0.388	6.5	10	approximately 50%
O=C1C=CC2=Nc3ccc(O)cc3C3(C=CC(=O)C4=C3CCCC4)C2=C1 (stereo not shown) [Example 5]	0.387	6.7	8	–
CC(C)(C)C1=CC2(C=CC1=O)C1=CC(=O)C=CC1=Nc1ccc(O)cc12 (stereo not shown) [Example 7]	0.324	7.2	6	–

Continued, values first:

Absorbance ratio of acid/base [1]	pKa [2]	Fluorescence [3]	quantum yield ([3]; aqueous solution containing base)	SMILES
0.391	6.5	7	–	CC1=CC(=O)C=C(C)C12C1=CC(=O)C=CC1=Nc1ccc(O)cc12 [Example 2]
0.380	6.5	10	–	CC1=CC(=O)C(C)=C(C)C12C1=CC(=O)C=CC1=Nc1ccc(O)cc12 (stereo not shown) [Example 3]
0.377	6.4	7	–	CC1=CC(=O)C=C(C(C)C)C12C1=CC(=O)C=CC1=Nc1ccc(O)cc12 (stereo not shown) [Example 6]
